Data taken from patent publication US20080220446A1, “Method for Detecting and/or Removing Protein and/or Peptide Comprising a Cross-Beta Structure From an Aqueous Solution Comprising a Protein” (priority 2005, published 2008).
Where “and” joins values, the source holds several entries; their conditions need not be identical. Equal entries are not always repeated.

Key:
tPA [1] = target: T1, tPA (Homo sapiens, UniProt P00750); test: tPA ELISA with coated protein therapeutics; assay type: binding; settings: ELISA, stored at the recommended temperature of 4° C.
T1 sequence (P00750 36-562): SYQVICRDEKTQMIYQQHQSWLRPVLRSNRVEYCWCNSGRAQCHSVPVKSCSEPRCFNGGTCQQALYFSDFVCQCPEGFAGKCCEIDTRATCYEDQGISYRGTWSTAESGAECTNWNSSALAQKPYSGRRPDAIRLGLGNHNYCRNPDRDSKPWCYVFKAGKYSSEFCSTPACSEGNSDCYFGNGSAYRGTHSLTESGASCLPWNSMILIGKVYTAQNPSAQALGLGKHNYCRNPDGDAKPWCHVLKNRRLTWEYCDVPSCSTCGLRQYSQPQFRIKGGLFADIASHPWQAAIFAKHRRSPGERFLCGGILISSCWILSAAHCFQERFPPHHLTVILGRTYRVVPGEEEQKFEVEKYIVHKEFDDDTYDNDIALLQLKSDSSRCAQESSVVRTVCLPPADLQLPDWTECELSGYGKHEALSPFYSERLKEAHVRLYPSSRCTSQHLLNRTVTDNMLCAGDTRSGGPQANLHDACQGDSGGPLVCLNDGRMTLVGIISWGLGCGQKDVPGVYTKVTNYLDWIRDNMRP
Method: (§1) Formulated protein therapeutics were obtained from the local hospital pharmacy and were used as supplied by the manufacturers. […] Lyophilized therapeutics were dissolved according to the manufacturers recommendations. GH, zinc-insulin, Cealb and gelatin were stored at −20, 4, room temperature, 37 and 65° C. Other protein therapeutics were only kept at 4° C., and assayed for the presence of cross-β structure at shown time points. Enhancement in fluorescence of ThT and Congo red was measured with all formulated protein therapeutics. For this purpose, proteins were diluted to the indicated concentrations. […] Zinc-insulin was diluted tenfold in the activation assay, GH was diluted to a final concentration of 500 μg ml^−1. Activation of factor XII and prekallikrein by the therapeutics was tested in the chromogenic factor XII assay (see above). […] After coating, plates were blocked with Blocking Reagent (Roche Diagnostics, Almere, The Netherlands).

factor XII = target: T2, factor XII (Homo sapiens, UniProt P00748); test: Factor XII / prekallikrein activation assay (Chromozym-PK); assay type: biochemical
T2 construct: purified human factor XII from plasma (Calbiochem); purchased Calbiochem; host or cells: human plasma
T2 sequence (P00748 20-615): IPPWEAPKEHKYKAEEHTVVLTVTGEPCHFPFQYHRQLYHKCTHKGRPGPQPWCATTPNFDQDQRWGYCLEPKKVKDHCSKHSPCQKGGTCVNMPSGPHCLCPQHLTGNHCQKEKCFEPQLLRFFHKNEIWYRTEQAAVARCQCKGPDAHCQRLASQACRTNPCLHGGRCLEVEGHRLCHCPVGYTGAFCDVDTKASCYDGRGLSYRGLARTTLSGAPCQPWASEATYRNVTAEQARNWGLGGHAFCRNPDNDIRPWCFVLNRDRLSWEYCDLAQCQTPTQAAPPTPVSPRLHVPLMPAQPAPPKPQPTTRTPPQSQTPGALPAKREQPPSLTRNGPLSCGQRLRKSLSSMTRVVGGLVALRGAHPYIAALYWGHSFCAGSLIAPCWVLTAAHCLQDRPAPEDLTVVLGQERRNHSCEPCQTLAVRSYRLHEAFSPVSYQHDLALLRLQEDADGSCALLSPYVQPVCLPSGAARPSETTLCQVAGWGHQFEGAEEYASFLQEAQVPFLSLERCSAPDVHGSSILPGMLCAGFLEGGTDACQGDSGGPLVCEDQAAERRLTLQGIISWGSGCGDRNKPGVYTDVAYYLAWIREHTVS
Method: Plasmin (Pls) activity was assayed as described^16. Peptides and proteins that were tested for their stimulatory ability were regularly used at 100 μg ml^−1. […] Chromogenic substrate S-2251 (Chromogenix, Instrumentation Laboratory SpA, Milano, Italy) was used to measure Pls activity. Conversion of zymogen factor XII (#233490, Calbiochem, EMD Biosciences, Inc., San Diego, Calif.) to proteolytically active factor XII (factor XIIa) was assayed by measurement of the conversion of chromogenic substrate Chromozym-PK (Roche Diagnostics, Almere, The Netherlands) by kallikrein. Chromozym-PK was used at a concentration of 0.3 mM. Factor XII, human plasma prekallikrein (#529583, Calbiochem) and human plasma cofactor high-molecular weight kininogen (#422686, Calbiochem) were used at concentrations of 1 μg ml^−1. […] Assays were performed using microtiter plates (Costar, Cambridge, Mass., USA). Peptides and proteins were tested for their ability to activate factor XII. […] The conversion of Chromozym-PK was recorded kinetically at 37° C. for at least 60 minutes. […]
Formulated protein therapeutics were obtained from the local hospital pharmacy and were used as supplied by the manufacturers. […] Enhancement in fluorescence of ThT and Congo red was measured with all formulated protein therapeutics. […]

[2] = Congo red fluorescence of protein solutions; assay type: physicochemical
Method: Background signals from buffer, buffer with Congo red and protein/peptide solution without Congo red were subtracted from corresponding measurements with protein solution incubated with Congo red. Fluorescence was measured in triplicate on a Hitachi F-4500 fluorescence spectrophotometer (Ltd., Tokyo, Japan).
as §1

[3] = target: T3, LRP cl-IV binding to BSA-AGE (Bos taurus, UniProt P02769); test: ELISA, interference with LRP cl-IV binding to BSA-AGE; design: species or system human; settings: concentration series, 50 times diluted LRP cl-IV medium
T3 construct: made in house; host or cells: HEK293E/S (LRP cl-IV, culture supernatant)
T3 sequence (P02769 25-607): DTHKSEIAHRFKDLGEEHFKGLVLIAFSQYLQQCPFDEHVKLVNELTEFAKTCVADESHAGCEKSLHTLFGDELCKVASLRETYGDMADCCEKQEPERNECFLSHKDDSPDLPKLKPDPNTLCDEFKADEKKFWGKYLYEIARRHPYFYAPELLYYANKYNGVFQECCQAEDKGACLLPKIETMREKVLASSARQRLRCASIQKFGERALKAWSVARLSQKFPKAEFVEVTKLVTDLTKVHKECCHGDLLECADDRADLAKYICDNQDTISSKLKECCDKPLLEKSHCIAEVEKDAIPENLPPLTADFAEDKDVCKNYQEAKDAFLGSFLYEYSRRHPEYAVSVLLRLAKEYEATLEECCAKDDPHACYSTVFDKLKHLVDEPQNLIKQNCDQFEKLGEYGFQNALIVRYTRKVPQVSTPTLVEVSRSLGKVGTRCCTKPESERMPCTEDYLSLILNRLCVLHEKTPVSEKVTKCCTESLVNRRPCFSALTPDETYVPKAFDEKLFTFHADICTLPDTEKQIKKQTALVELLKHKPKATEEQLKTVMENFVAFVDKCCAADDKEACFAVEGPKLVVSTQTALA
Method: To test whether amyloid-like crossbeta structure binding compounds tPA, Congo red, Thioflavin T and Thioflavin S interfere with LRP cl-IV binding to BSA-AGE, concentration series of the potential inhibitory amyloid binding moieties were tested in the presence of 50 times diluted medium containing LRP cl-IV. The following inhibitors were used: tPA, Congo red, Thioflavin T (ThT) and Thioflavin S (ThS). As a control to tPA, K2P tPA, which lacks the amyloid-like misfolded protein binding finger domain, was included in the analyses. The influence of tPA and K2P tPA was tested in the presence of 10 mM ε-amino caproic acid to avoid binding of the kringle2 domain of tPA and K2P tPA to lysine- and arginine residues. Binding buffer and K2P tPA serve as negative controls in these inhibition studies. The concentration series was measured in triplicate, the values averaged and standard deviations calculated. Background signals obtained with buffer-coated wells were subtracted. Signals obtained with binding of LRP cluster IV to BSA-AGE was set arbitrarily to a reference binding of 100% and signals obtained with the concentration series of misfolded protein binding moieties and K2P tPA were calculated based on this set reference.

tPA [4] = target: T1, tPA; test: Plasminogen-activation assay (tPA activation, S-2251); assay type: biochemical; settings: 100 μg ml^−1
Method: Plasmin (Pls) activity was assayed as described^16. Peptides and proteins that were tested for their stimulatory ability were regularly used at 100 μg ml^−1. […] Chromogenic substrate S-2251 (Chromogenix, Instrumentation Laboratory SpA, Milano, Italy) was used to measure Pls activity. Conversion of zymogen factor XII (#233490, Calbiochem, EMD Biosciences, Inc., San Diego, Calif.) to proteolytically active factor XII (factor XIIa) was assayed by measurement of the conversion of chromogenic substrate Chromozym-PK (Roche Diagnostics, Almere, The Netherlands) by kallikrein. Chromozym-PK was used at a concentration of 0.3 mM. Factor XII, human plasma prekallikrein (#529583, Calbiochem) and human plasma cofactor high-molecular weight kininogen (#422686, Calbiochem) were used at concentrations of 1 μg ml^−1. […] Assays were performed using microtiter plates (Costar, Cambridge, Mass., USA). Peptides and proteins were tested for their ability to activate factor XII. 150 μg ml^−1 kaolin, an established activator of factor XII was used as positive control and solvent (H2O) as negative control. The conversion of Chromozym-PK was recorded kinetically at 37° C. for at least 60 minutes. Assays were done in duplicate.
as §1
To prepare structurally altered ovalbumin (OVA) with amyloid cross-β structures, purified OVA (Sigma, A-7641, lot 071k7094) was heated to 85° C. One mg ml^−1 OVA in 67 mM NaPi buffer pH 7.0, 100 mM NaCl, was heated for two cycles in PCR cups in a PTC-200 thermal cycler (MJ Research, Inc., Waltham, Mass., USA). In each cycle, OVA was heated from 30 to 85° C. at a rate of 5° C./min. Native OVA (nOVA) and heat-denatured OVA (dOVA) were tested in the ThT fluorescence assay and in the Plg-activation assay. In the fluorescence assay and in the Plg-activation assay, 25 and 100 μg ml^−1 nOVA and dOVA were tested, respectively. TEM images of nOVA and dOVA were taken to check for the presence of large aggregates.
MSA (#126674, Calbiochem) was dissolved in 8 M urea, 100 mM Tris-HCl pH 8.2, at 10 mg ml^−1 final concentration. Dithiothreitol (DTT) was added to a final concentration of 10 mM. Air was replaced by N2 and the solution was incubated for 2 h at room temperature. Then, the solution was transferred to ice and iodoacetamide was added from a 1 M stock to a final concentration of 20 mM. […] Alkyl-MSA was dialyzed against H2O before use. […] In the ThT-fluorescence assay 25 μg ml^−1 nMSA and alkyl-MSA were tested, and in the Plg-activation assay 100 μg ml^−1 was tested. The presence of aggregates or fibrils was analyzed using TEM.
Lyophilized sterile glucagon was dissolved at 1 mg ml^−1 in H2O with 10 mM HCl. The solution was subsequently kept at 37° C. for 24 h, at 4° C. for 14 days and again at 37° C. for 9 days. […] TEM analysis was performed to assess the presence of large multimeric structures.

Fn F4-5 = target: T4, Fn F4-5 (Homo sapiens, UniProt P02751); test: Biacore surface plasmon resonance, binding to immobilized Fn F4-5
T4 construct: amino-acids NH2—I182-V276-COOH of Fn F4-5; made in house; host or cells: Saccharomyces cerevisiae
T4 sequence (P02751 182-276): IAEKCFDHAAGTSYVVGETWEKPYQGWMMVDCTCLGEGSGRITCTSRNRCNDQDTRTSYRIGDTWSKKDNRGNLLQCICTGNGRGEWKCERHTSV
Method: Binding of cross-β structure containing peptides/proteins was studied using surface plasmon resonance technology with a Biacore 2000 apparatus (Biacore AB, Uppsala, Sweden). A standardized amine coupling procedure was used to couple proteins with F domains to a CM5 chip (Biacore AB, Uppsala, Sweden). First, the dextran surface of the chips was activated by a 35 μl injection with a 1:1 mixture of 0.1 M N-hydroxysuccinimide (NHS) and 0.4 M N-ethyl-N′-(dimethylaminopropyl)carbodiimide (EDC) at a flow rate of 5 μl min.^−1. Then, the proteins were covalently coupled to the activated dextran surface. Remaining activated groups in each of the four flow channels were blocked by injection of 35 μl of 1 M ethanolamine hydrochloride pH 8.5. EDC, NHS and ethanolamine hydrochloride were obtained from Biacore. On one chip, on channels 1 to 4, buffer (reference channel), the soluble extracellular part of receptor for advanced glycation endproducts (sRAGE), tPA and K2P-tPA were immobilized. […] Binding of albumin-AGE was determined with a solution of 3.9 μg ml^−1 albumin-AGE in running buffer. albumin-AGE was filtered on a Millex-GV 0.22 μm filter unit (Millipore). […] Binding of Hb-AGE was also tested after centrifugation for 10 min. at 16,000*g alternative to filtration. tPA activation before and after filtration was assessed with a Plg-activation assay. […]

platelets = test: Aggregometric assay with washed platelets; assay type: cell-based, human; settings: 1 μM
Method: The presence of protein(s) and/or peptide(s) with amyloid-like misfolded protein conformation on activated blood platelets was tested with washed platelets in an aggregometric assay. Freshly drawn human aspirin free blood was mixed gently with citrate buffer to avoid coagulation. Blood was spinned for 15 minutes at 150*g at 20° C. and supernatant was collected; platelet rich plasma (PRP). […] After spinning down the platelets upon centrifugation for 15 minutes at 330*g at 20° C., the pellet was resuspended in HEPES-Tyrode buffer pH 6.5. Prostacyclin was added to a final concentration of 10 ng/ml, and the solution was centrifuged for 15 minutes at 330*g at 20° C., with a soft brake. The pellet was resuspended in HEPES-Tyrode buffer pH 7.2 in a way that the final platelet number was adjusted to 200,000/μl. Platelets were kept at 37° C. for at least 30 minutes, before use in the assays, to ensure that they were in the resting state.
For the aggregometric assays, 400 μl platelet solution was added to a glass tube with 100 μl containing the agonist of interest, fibrinogen and CaCl2. Final concentrations of fibrinogen and CaCl2 were 0.5 mg/ml and 3 mM, respectively. A stirring magnet was added and the apparatus (Whole-blood aggregometer, Chrono-log, Havertown, Pa., USA) was blanked. Aggregation was followed in time by measuring the absorbance of the solution, that will decrease in time upon platelet aggregation. As a positive control, 0.5 U/ml thrombin was used, or TRAP. Aggregation was followed for 10 minutes. Influence of 200 μM Thioflavin T, 200 μM Congo red or 1 μM tPA on platelet aggregation was analyzed.

## Gelatin
tPA [1]
  binding of tPA: binding of tPA was established
Factor XII; kept at 37° C.
  activation of factor XII: activated factor XII
Factor XII; stored at 4° C.
  activation of the factor XII/prekallikrein contact system: not
[2]; stored at 4° C. and 37° C.
  enhancement of Congo red fluorescence: enhanced Congo red fluorescence in a storage temperature dependent manner
[2]; stored at the recommended storage temperature of 4° C.
  enhancement of Congo red fluorescence: enhanced the fluorescence of Congo red

## Thioflavin S [ThS]
[3]
  influence on binding of LRP cl-IV to BSA-AGE: inhibit binding of LRP cl-IV to BSA-AGE to a large extent

## endostatin
tPA [4]
  tPA activating properties: absence of tPA activating properties
Fn F4-5; Biacore, native Hb at 25 nM
  binding to the Fn F4-5 doublet: bound
Fn F4-5; immobilized Fn F4-5, Biacore CM5 chip, read-out: concentration of ligand that results in half maximum binding to Fn F4-5
  Kd: ≤ 0.8 µM and 0.8 µM

## tPA: tissue-type plasminogen activator
platelets
  inhibition of thrombin-induced aggregation: 55%
